The test system of experiment [1] is ocular hypertensive New Zealand White (NZW) rabbits. Kind of experiment: Intraocular pressure (IOP) lowering activity in ocular hypertensive NZW rabbits (hypertonic saline injection). Conditions: versus vehicle and versus basal IOP, mean±standard error, compound (12) 0.3%, travoprost 0.004% topical, hypertonic saline (5%) intravitreal. Type of experiment: in vivo. As for the experimental part: Intraocular Pressure (IOP) Lowering Activity in Ocular Hypertensive New Zealand White (NZW) Rabbits
The Intraocular pressure (IOP) lowering activity of the combination of compound (12) (0.3%) and travoprost (0.004%) was assessed in ocular hypertensive rabbits.
Adult male NZW rabbits weighting 1.8-2.0 Kg were used in the experiments.
NZW rabbits were injected with 0.1 ml of hypertonic saline (5%) into the vitreous humor of both eyes. IOP was measured using a Tono-Pen AVIA Vet® at different time points (30, 60, 120 and 240 min) following hypertonic saline injection as well as before topical drug application (basal).
Travoprost (0.004%) or vehicle (5% cremophor-EL; 0.3% DMSO; 0.2 mg/ml BAC in PBS pH 6.0) were topically administered 15 min before hypertonic saline injection.
Compound (12) (0.3%) or vehicle (5% cremophor-EL; 0.3% DMSO; 0.2 mg/ml BAC in PBS pH 6.0) were topically administered immediately after hypertonic saline injection. Eyes were randomly assigned to different treatment groups.
One drop of 0.4% oxybuprocaine hydrochloride (Novesine, Sandoz) was instilled in each eye immediately before each set of ocular pressure measurements.
The ocular hypotensive effects (at […] following topical administration) of travoprost, compound (12) and the combination of compound (12) and travoprost are reported in table 2.
The results reported in table 2 are expressed as IOP change (at 30, 60, 120 and 300 minutes following topical administration) versus vehicle and versus IOP at basal (mean±standard error).

Experiment [2] has as its system ocular normotensive New Zealand White (NZW) rabbits. Kind of experiment: Intraocular pressure (IOP) lowering activity in ocular normotensive NZW rabbits. The experiment is classed as in vivo. The conditions noted are these: versus vehicle and versus basal IOP, mean±standard error, compound (12) 0.1%, travoprost 0.004% eye drops. As to the method:
Intraocular Pressure (IOP) Lowering Activity in Ocular Normotensive New Zealand White (NZW) Rabbits
The Intraocular pressure (IOP) lowering activity of the combination of compound (12) (0.1%) and travoprost (0.004%) was assessed in ocular normotensive rabbits.
Adults male NZW rabbits weighting 1.8-2.0 Kg were used in the experiments.
IOP was measured using a pneumatonometer 30 CLASSIC™ before topical application (basal) and at different time points (30, 60, 120, 180, 240 and 300 min) thereafter. Travoprost (0.004%) or vehicle (5% cremophor-EL; 0.3% DMSO; 0.2 mg/ml BAC in PBS pH 6.0) were topically administered 5 minutes prior to compound (12) (0.1%) or vehicle (same as above) as eye drops into the conjunctiva pocket. Eyes were randomly assigned to different treatment groups. One drop of 0.4% oxybuprocaine hydrochloride (Novesine, Sandoz) was instilled in each eye immediately before each set of ocular pressure measurements.
Results are reported in the table in which the ocular hypotensive activity of the combination, of compound (12) and of travoprost are expressed as IOP change (at 30, 60, 120 and 300 minutes following topical administration) versus vehicle and versus IOP at basal (mean±standard error).

[3] abbreviates: 30 minutes after topical administration.
The mark [4] stands for this setting: 60 minutes after topical administration.
The mark [5] stands for this setting: 120 minutes after topical administration.
[6] abbreviates: 180 minutes after topical administration.
Setting [7] is: 300 minutes after topical administration.

As to `O=C(CCC[C@@H](CO[N+](=O)[O-])O[N+](=O)[O-])O[C@@H]1CO[C@H]2[C@@H]1OC[C@H]2O` [Compound (12), (S)-((3R,3aR,6R,6aR)-6-hydroxyhexahydrofuro[3,2-b]furan-3-yl) 5,6-bis(nitrooxy)hexanoate], the IOP change in experiment [1] (30 minutes) is −2.4 ± 0.6 mmHg; in experiment [1] (60 minutes) it was −7.7 ± 0.5 mmHg; in experiment [1] (120 minutes) it was −6.4 ± 0.5 mmHg; in experiment [1] (240 minutes), −1.8 ± 0.6 mmHg; in experiment [2] (setting [3]), −1.4 ± 0.6 mmHg; in experiment [2] (setting [4]), −2.1 ± 0.4 mmHg. Moreover, the IOP change in experiment [2] (setting [5]) was −0.3 ± 0.3 mmHg; in experiment [2] (setting [6]), 0.1 ± 0.5 mmHg; in experiment [2] (setting [7]), 1.1 ± 0.8 mmHg.

With `CC(C)OC(=O)CCC/C=C\C[C@@H]1[C@@H](/C=C/[C@@H](O)COc2cccc(C(F)(F)F)c2)[C@H](O)C[C@@H]1O` [Travoprost, 5-heptenoic acid, 7-[(1R,2R,3R,5S)-3,5-dihydroxy-2-[(1E,3R)-3-hydroxy-4-[3-(trifluoromethyl)phenoxy]-1-buten-1-yl]cyclopentyl]-, 1-methylethyl ester, (5Z)-], the IOP change in experiment [1] (30 minutes) is −2.4 ± 0.5 mmHg; in experiment [1] (60 minutes), −5.0 ± 0.8 mmHg; in experiment [1] (120 minutes) it was −5.1 ± 0.7 mmHg; in experiment [1] (240 minutes), −1.7 ± 0.4 mmHg; in experiment [2] (setting [3]) it was −1.6 ± 1.6 mmHg; in experiment [2] (setting [4]) it was −0.9 ± 1.0 mmHg. The IOP change in experiment [2] (setting [5]) was −1.1 ± 1.2 mmHg; in experiment [2] (setting [6]), −0.8 ± 0.4 mmHg; in experiment [2] (setting [7]), −0.6 ± 0.1 mmHg.

(Values after patent US10610509B2, “Combinations of prostaglandins and nitric oxide donors” (NICOX S.A., priority 2014, dated 2020).)
